In the supplement of paper PMC10883282:
± gives the standard deviation of the averaged measurements.

Test system: SK-LMS-1
Test: relative viability vs DMSO control (72 h) (fraction); higher = more viable cells
Summary of the method: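 Relative viability was measured with ATPLite and expressed as percent growth, averaged across up to triplicate wells. Sarcoma cell lines had been seeded in 384-well plates to reach 80–90% confluence, dosed after 24 h, and incubated 72 h at 37 °C, 5% CO2. All data were rescaled on a scale where 1 is full and 0 is none.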

SMILES | relative viability (0.00017 µM) | relative viability (0.00051 µM) | relative viability (0.00152 µM) | relative viability (0.00457 µM) | relative viability (0.01372 µM) | relative viability (0.04115 µM) | relative viability (0.1235 µM) | relative viability (0.3704 µM) | relative viability (1.111 µM) | relative viability (3.333 µM) | relative viability (10 µM)
C=CC(=O)Nc1cccc(Oc2nc(Nc3ccc(N4CCN(C)CC4)cc3)nc3ccsc23)c1 [Olmutinib] | 1.06 ± 0.047 | 1.08 ± 0.013 | 1.07 ± 0.044 | 1.076 ± 0.006 | 1.09 ± 0.029 | 1.06 ± 0.015 | 1.08 ± 0.013 | 1.05 ± 0.04 | 0.976 ± 0.033 | 0.843 ± 0.016 | 0.113 ± 0.03
COc1cc2c(Oc3ccc4[nH]c(C)cc4c3F)ncnc2cc1OCCCN1CCCC1 [Cediranib] | 1.01 ± 0.011 | 1.02 ± 0.028 | 1.02 ± 0.038 | 1.03 ± 0.052 | 0.989 ± 0.025 | 1.02 ± 0.042 | 0.98 ± 0.017 | 0.977 ± 0.025 | 0.925 ± 0.013 | 0.911 ± 0.029 | 0.462 ± 0.066
Cc1cnc(Nc2ccc(OCCN3CCCC3)cc2)nc1Nc1cccc(S(=O)(=O)NC(C)(C)C)c1 [Fedratinib] | 1.01 ± 0.035 | 1 ± 0.068 | 1.04 ± 0.041 | 1.08 ± 0.062 | 1.04 ± 0.012 | 1.01 ± 0.042 | 0.99 ± 0.018 | 0.904 ± 0.034 | 0.7315 ± 0.0026 | 0.407 ± 0.011 | 0.0111 ± 0.0012
CCCS(=O)(=O)Nc1ccc(F)c(C(=O)c2c[nH]c3ncc(-c4ccc(Cl)cc4)cc23)c1F [Vemurafenib] | 0.994 ± 0.053 | 0.988 ± 0.079 | 1.01 ± 0.081 | 1.06 ± 0.053 | 1.03 ± 0.028 | 0.979 ± 0.06 | 1.02 ± 0.013 | 0.959 ± 0.01 | 0.855 ± 0.033 | 0.667 ± 0.018 | 0.697 ± 0.1
Cn1cnc2c(F)c(Nc3ccc(Br)cc3F)c(C(=O)NOCCO)cc21 [Binimetinib] | 1.11 ± 0.03 | 1.16 ± 0.045 | 1.13 ± 0.034 | 1.07 ± 0.073 | 1 ± 0.011 | 0.879 ± 0.01 | 0.725 ± 0.039 | 0.646 ± 0.038 | 0.61 ± 0.016 | 0.484 ± 0.011 | 0.375 ± 0.028
COc1c(OCCCN2CCOCC2)ccc2c1N=C(NC(=O)c1cnc(N)nc1)N1CCN=C21 [Copanlisib] | 1.05 ± 0.059 | 0.995 ± 0.035 | 0.964 ± 0.032 | 0.814 ± 0.035 | 0.744 ± 0.042 | 0.629 ± 0.014 | 0.539 ± 0.018 | 0.454 ± 0.017 | 0.365 ± 0.02 | 0.296 ± 0.014 | 0.302 ± 0.011
COc1cc2nccc(Oc3ccc(NC(=O)Nc4cc(C)on4)c(Cl)c3)c2cc1OC [Tivozanib] | 1.01 ± 0.022 | 0.999 ± 0.029 | 1.05 ± 0.04 | 1.05 ± 0.037 | 1.03 ± 0.038 | 0.9926 ± 0.0016 | 0.989 ± 0.036 | 1.08 ± 0.044 | 1.16 ± 0.043 | 0.908 ± 0.058 | 0.462 ± 0.015
CC[C@H](Nc1ncnc2[nH]cnc12)c1nc2cccc(F)c2c(=O)n1-c1ccccc1 [Idelalisib] | 1.02 ± 0.019 | 1.02 ± 0.046 | 1.02 ± 0.084 | 1.01 ± 0.028 | 0.991 ± 0.034 | 1.02 ± 0.041 | 0.972 ± 0.049 | 0.929 ± 0.035 | 0.838 ± 0.049 | 0.71 ± 0.03 | 0.618 ± 0.025
Cc1cc(C)c(/C=C2\C(=O)Nc3ccccc32)[nH]1 [Semaxanib] | 0.927 ± 0.045 | 0.907 ± 0.044 | 0.897 ± 0.025 | 0.878 ± 0.033 | 0.897 ± 0.053 | 0.874 ± 0.039 | 0.872 ± 0.02 | 0.894 ± 0.018 | 0.905 ± 0.027 | 0.871 ± 0.033 | 0.811 ± 0.013
Cc1ccc(F)c(NC(=O)Nc2ccc(-c3cccc4[nH]nc(N)c34)cc2)c1 [Linifanib] | 0.97 ± 0.011 | 1 ± 0.02 | 1.02 ± 0.022 | 1.01 ± 0.038 | 1.03 ± 0.037 | 1.01 ± 0.041 | 1.02 ± 0.05 | 1.04 ± 0.059 | 1.099 ± 0.0016 | 1.05 ± 0.058 | 1.06 ± 0.075
COCc1c(-c2cc3cc(C)cc(OC)c3s2)c2c(N)ncnn2c1CN1CCNC(=O)C1 [Rogaratinib] | 1.01 ± 0.034 | 0.992 ± 0.026 | 1.02 ± 0.022 | 1.01 ± 0.044 | 0.995 ± 0.022 | 0.992 ± 0.035 | 1 ± 0.01 | 0.975 ± 0.017 | 0.96 ± 0.036 | 0.76 ± 0.019 | 0.589 ± 0.017
N#CC[C@H](C1CCCC1)n1cc(-c2ncnc3[nH]ccc23)cn1 [Ruxolitinib] | 1.03 ± 0.012 | 1 ± 0.037 | 0.995 ± 0.036 | 1.03 ± 0.034 | 1.036 ± 0.0052 | 1.035 ± 0.0072 | 1.02 ± 0.021 | 1.03 ± 0.029 | 1.03 ± 0.039 | 0.986 ± 0.033 | 0.828 ± 0.02
CCN1CCN(Cc2ccc(Nc3ncc(F)c(-c4cc(F)c5nc(C)n(C(C)C)c5c4)n3)nc2)CC1 [Abemaciclib] | 1.03 ± 0.012 | 1.05 ± 0.019 | 1.05 ± 0.057 | 1.02 ± 0.033 | 1.04 ± 0.024 | 1.01 ± 0.021 | 0.945 ± 0.037 | 0.9498 ± 0.0093 | 0.926 ± 0.043 | 0.88 ± 0.042 | 0.873 ± 0.02
CNC(=O)c1cc(Oc2ccc(NC(=O)Nc3ccc(Cl)c(C(F)(F)F)c3)c(F)c2)ccn1 [Regorafenib] | 1.12 ± 0.046 | 1.11 ± 0.018 | 1.12 ± 0.082 | 1.11 ± 0.03 | 1.17 ± 0.053 | 1.08 ± 0.073 | 1.11 ± 0.079 | 1.05 ± 0.036 | 0.938 ± 0.066 | 0.719 ± 0.035 | 0.0852 ± 0.017
Nc1cc(C(F)(F)F)c(-c2cc(N3CCOCC3)nc(N3CCOCC3)n2)cn1 [Buparlisib] | 1.02 ± 0.031 | 0.9986 ± 0.0078 | 1.01 ± 0.035 | 1.02 ± 0.013 | 1.01 ± 0.038 | 0.9304 ± 0.0067 | 0.825 ± 0.018 | 0.686 ± 0.015 | 0.3771 ± 0.0013 | 0.148 ± 0.0057 | 0.102 ± 0.0085
CC(C)NC(=O)C1CCC(n2c(NC(=O)c3ccc(F)cc3)nc3ccc(CN4CCC(C(C)(C)O)CC4)cc32)CC1 (stereo not drawn) [Belizatinib] | 1.05 ± 0.024 | 1.06 ± 0.021 | 1.06 ± 0.039 | 1.07 ± 0.04 | 1.07 ± 0.069 | 1.11 ± 0.046 | 1.09 ± 0.023 | 1.04 ± 0.074 | 0.949 ± 0.05 | 0.758 ± 0.018 | 0.38 ± 0.021
CC1(C)CNc2cc(NC(=O)c3cccnc3NCc3ccncc3)ccc21 [Motesanib] | 1.04 ± 0.042 | 1.02 ± 0.013 | 1.024 ± 0.0066 | 1.02 ± 0.016 | 1.06 ± 0.025 | 1.03 ± 0.033 | 1.02 ± 0.04 | 1.04 ± 0.027 | 0.99 ± 0.037 | 0.986 ± 0.017 | 0.925 ± 0.02
CC(=O)Nc1cccc(-n2c(=O)n(C3CC3)c(=O)c3c(Nc4ccc(I)cc4F)n(C)c(=O)c(C)c32)c1 [Trametinib] | 1.01 ± 0.027 | 1.02 ± 0.06 | 1.06 ± 0.03 | 0.905 ± 0.034 | 0.575 ± 0.025 | 0.399 ± 0.01 | 0.327 ± 0.0053 | 0.27 ± 0.0086 | 0.25 ± 0.0039 | 0.225 ± 0.0081 | 0.193 ± 0.0022
